From patent US20250090699A1, “FAP TARGETING CYCLIC PEPTIDES AND CONJUGATES THEREOF” (Novartis AG, priority 2023, published 2025)
Structures can show the parent of a compound that is named as a salt. Starred links: 1 amine or outer side, 2 acyl side, 3 side chain; linkers in the order of their positions; H or OH if unused. Non-standard residues stand in square brackets, D forms with d. Residues, ends and D or L forms follow the SMILES beside them. Groups on a side chain read outwards from the residue. *: point of attachment. F(4amPEG2NHDOTA-Lu) = lutetium complex of (S)-2,2',2''-(10-(1-(4-(2-amino-2-carboxyethyl)phenyl)-3,12-dioxo-5,8-dioxa-2,11-diazatridecan-13-yl)-1,4,7,10-tetraazacyclododecane-1,4,7-triyl)triacetic acid (Phe with 4-aminomethyl-PEG2-DOTA-Lu), O=C([O-])CN1CCN(CC(=O)[O-])CCN(CC(=O)NCCOCCOCC(=O)NCc2ccc(C[C@H](N[*:1])C(=O)[*:2])cc2)CCN(CC(=O)[O-])CC1.[Lu+3]; COpipzaa = 4-(carboxymethyl)piperazine-1-carbonyl, O=C(O)CN1CCN(C(=O)*)CC1; hS(Pr) = O-propyl-L-homoserine, CCCOCC[C@H](N[*:1])C(=O)[*:2]; NOTA = O=C(O)CN1CCN(CC(=O)O)CCN(CC(=O)*)CC1; Phe(4-CH2NH2) = NCc1ccc(C[C@H](N)C(=O)O)cc1; Piperazinyl(4-CH2COOH) = O=C(O)CN1CCN(*)CC1; NMeY = CN[C@@H](Cc1ccc(O)cc1)C(=O)O; NMeF = CN[C@@H](Cc1ccccc1)C(=O)O; Aoc(2) = CCCCCC[C@H](N)C(=O)O; d(αMeP) = C[C@]1(C(=O)O)CCCN1; Ahp(2) = CCCCC[C@H](N)C(=O)O; hSer = N[C@@H](CCO)C(=O)O; AEEA = NCCOCCOCC(=O)O; CO = O=C([*:1])[*:2]; Propyl = CCC*

Experiments:
human FAP [1] = target: T1, human FAP (Homo sapiens, UniProt Q12884); test: Surface plasmon resonance (SPR) for peptide affinity, human FAP; format: binding; conditions: read-out: h. FAP, SPR, KD
T1 construct: the biotinylated His, Avi tag, human FAP (26-760, FAP-H82Q6); His; Avi tag (biotinylated); purchased AcroBiosystems FAP-H82Q6
T1 sequence (Q12884 26-760): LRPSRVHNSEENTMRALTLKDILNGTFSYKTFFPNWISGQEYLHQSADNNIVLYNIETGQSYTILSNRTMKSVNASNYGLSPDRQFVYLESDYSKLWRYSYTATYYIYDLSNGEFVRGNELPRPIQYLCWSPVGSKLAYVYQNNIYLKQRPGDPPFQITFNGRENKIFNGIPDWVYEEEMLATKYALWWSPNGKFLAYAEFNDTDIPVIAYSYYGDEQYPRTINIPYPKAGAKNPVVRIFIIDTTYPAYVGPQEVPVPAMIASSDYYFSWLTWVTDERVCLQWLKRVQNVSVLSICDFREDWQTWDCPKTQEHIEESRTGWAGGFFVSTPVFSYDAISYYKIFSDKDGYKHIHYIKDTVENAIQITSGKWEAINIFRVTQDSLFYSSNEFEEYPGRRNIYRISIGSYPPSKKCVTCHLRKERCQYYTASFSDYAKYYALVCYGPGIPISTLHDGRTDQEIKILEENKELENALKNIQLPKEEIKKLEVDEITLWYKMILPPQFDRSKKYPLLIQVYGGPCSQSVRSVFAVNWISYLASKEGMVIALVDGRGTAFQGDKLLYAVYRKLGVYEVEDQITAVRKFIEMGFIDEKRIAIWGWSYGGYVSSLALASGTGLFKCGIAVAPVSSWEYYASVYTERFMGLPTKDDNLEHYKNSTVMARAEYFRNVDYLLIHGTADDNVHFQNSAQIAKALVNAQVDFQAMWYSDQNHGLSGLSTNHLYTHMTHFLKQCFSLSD
Description: Peptide affinities (KD) were determined by SPR using a Biacore™ 8K device (Cytiva) towards the following proteins: biotinylated His, Avi tag, human FAP (26-760, FAP-H82Q6), biotinylated His, Avi tag, mouse FAP (26-761, FAP-M82Q5), His tag, human DPP4 (34-766, DP4-H82E3), all purchased from AcroBiosystems and His tag, mouse DPP4 (29-760, 954-SE) from R&D Systems. The FAP proteins and their homologous were diluted to a concentration of 2 μg/mL into acetate buffer pH 5.5, then immobilized onto a CM5 sensorchip (Cytiva, BR-1005-30) to reach a response around 2000 R U. The running buffer HBS-EP+pH 7.6 (20× from Teknova CAT. No: H8022) contained 10 mM HEPES pH 7.6, 150 mM NaCl, 3 mM EDTA, 0.05% Tween20 and 2% DMSO. Experiments were carried out at 25° C. using a flow rate of 30 μL/min. Compounds were tested in single cycle kinetic mode at 8 different concentrations. Curve fitting was performed using the Biacore™ 8K evaluation software. The sensorgrams were fitted by applying a 1:1 binding model to calculate kinetic rate constants and equilibrium dissociation constants (KD).
For this assay, the setup had the same conditions (flow rate, running buffer, peptide dilution) as described above for the CM5 method. The oligo CAP reagent obtained in the CAPture Kit (Ref. 28920234) was 1/5 diluted into running buffer and used with a contact time of 300 s at a flow rate of 2 μL/min. The human and mouse FAP constructs described above were used (from AcroBiosystems or produced in house). The FAP proteins were diluted to a concentration of 2 μg/mL into acetate pH 5.5, 0.05% Tween20 and used with a contact time of 600 s at a flow rate of 10 μL/min. The peptides were tested with an association time of 280 s followed by a dissociation time of 3000 s at a flow rate of 30 μL/min. The regeneration was done using the regeneration solution (8 M guanidine-HCl, 1 M NaOH) as obtained with a contact time of 270 s at a flow rate of 10 μL/min. […] The compounds marked with an asterisk were tested against human and mouse DDP4.

mouse FAP [2] = target: T2, mouse FAP (Mus musculus, UniProt P97321); test: Surface plasmon resonance (SPR) for peptide affinity, mouse FAP; format: binding
T2 construct: biotinylated His, Avi tag, mouse FAP (26-761, FAP-M82Q5); His; Avi tag (biotinylated); purchased AcroBiosystems FAP-M82Q5
T2 sequence (P97321 26-761): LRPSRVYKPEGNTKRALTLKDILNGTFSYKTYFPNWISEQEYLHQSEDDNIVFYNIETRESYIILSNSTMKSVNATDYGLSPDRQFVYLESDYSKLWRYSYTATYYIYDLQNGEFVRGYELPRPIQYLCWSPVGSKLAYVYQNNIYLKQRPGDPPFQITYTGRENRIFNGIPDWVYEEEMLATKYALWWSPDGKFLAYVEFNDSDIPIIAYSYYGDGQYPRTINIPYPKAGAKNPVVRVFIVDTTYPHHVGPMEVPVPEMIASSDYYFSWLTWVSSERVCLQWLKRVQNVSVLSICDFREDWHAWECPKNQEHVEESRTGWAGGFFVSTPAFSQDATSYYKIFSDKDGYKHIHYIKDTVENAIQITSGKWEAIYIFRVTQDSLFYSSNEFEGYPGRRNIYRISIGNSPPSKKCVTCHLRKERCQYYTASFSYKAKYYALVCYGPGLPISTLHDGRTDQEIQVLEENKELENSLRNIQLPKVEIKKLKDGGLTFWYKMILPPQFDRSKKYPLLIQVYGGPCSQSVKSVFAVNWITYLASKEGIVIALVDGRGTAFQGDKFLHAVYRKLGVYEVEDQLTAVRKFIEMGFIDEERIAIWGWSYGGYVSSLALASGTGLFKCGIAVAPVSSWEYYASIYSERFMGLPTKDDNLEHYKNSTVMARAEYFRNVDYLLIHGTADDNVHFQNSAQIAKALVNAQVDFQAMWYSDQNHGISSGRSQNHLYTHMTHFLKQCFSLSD
Outline: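 KD values come from a 1:1 kinetic fit of single-cycle SPR data: 8 peptide concentrations, 25 °C, 30 μL/min, HEPES-buffered saline pH 7.6 with 2% DMSO. Targets were His/Avi-tagged human (26-760) or mouse (26-761) FAP, amine-coupled to CM5 or held on a CAPture chip.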

human FAP [3] = target: T1, human FAP; test: Enzymatic FAP competition assay (Z-Gly-Pro-AMC fluorescence), human FAP; format: biochemical; conditions: read-out: h. FAP, Enz., IC50
Outline: (§1)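 IC50 values come from curve fitting of duplicate % inhibition data on AMC fluorescence (ex 380, em 460 nm) after 4 h at 22-24° C with 50 μM Z-Gly-Pro-AMC. Beforehand, peptides up to 1 μM (14 levels) sat 24 h with 0.01 nM human (26-760) or mouse (26-761) tagged FAP in phosphate buffer pH 7.5, NaCl, Tween20, 1% DMSO.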

mouse FAP [4] = target: T2, mouse FAP; test: Enzymatic FAP competition assay (Z-Gly-Pro-AMC fluorescence), mouse FAP; format: biochemical; conditions: read-out: m. FAP, Enz., IC50
Outline: as §1

| Molecule | Kd (human FAP [1]) [nM] | Kd (mouse FAP [2]) [nM] | IC50 (human FAP [3]) [nM] | IC50 (mouse FAP [4]) [nM] |
| --- | --- | --- | --- | --- |
| CCCCCC[C@@H]1NC(=O)[C@H](Cc2ccc(CNC(=O)COCCOCCN)cc2)NC(=O)[C@H](Cc2ccccc2)N(C)C(=O)CNC(=O)CNC(=O)[C@H]2CCCN2C(=O)[C@H](CC(=O)O)NC(=O)[C@H](CCCCNC(=O)N2CCN(CC(=O)O)CC2)NC(=O)CNC(=O)[C@H](Cc2c[nH]c3ccccc23)NC1=O [Example A1, 2-((9S,12S,15S,18S,24S,27S,32aR)-18-((1H-indol-3-yl)methyl)-12-(4-((2-(2-(2-aminoethoxy)ethoxy)acetamido)methyl)benzyl)-9-benzyl-24-(4-(4-(carboxymethyl)piperazine-1-carboxamido)butyl)-15-hexyl-8-methyl-1,4,7,10,13,16,19,22,25,28-decaoxodotriacontahydropyrrolo[1,2-a][1,4,7,10,13,16,19,22,25,28]decaazacyclotriacontin-27-yl)acetic acid TFA salt] (cyclo([Aoc(2)]WGK([CO-Piperazinyl(4-CH2COOH)])D[dP]GG[NMeF][Phe(4-CH2NH2)](AEEA))) | < 0.007 | < 0.018 | 0.009 | 0.028 |
| Gly-Gly-NMePhe-F(4amPEG2NHDOTA-Lu)-hS(Pr)-Trp-Gly-K(COpipzaa)-Asp-D-Pro (cyclo(GG[NMeF][F(4amPEG2NHDOTA-Lu)][hS(Pr)]WGK(COpipzaa)D[dP]); also: Lu complex) [Example C2] | < 0.008 | < 0.036 | 0.009 | 0.023 |
| CCCCC[C@@H]1NC(=O)[C@H](Cc2ccc(O)cc2)NC(=O)[C@H](Cc2ccccc2)N(C)C(=O)CNC(=O)CNC(=O)[C@H]2CCCN2C(=O)[C@H](CC(=O)O)NC(=O)[C@H](Cc2ccc(O)cc2)NC(=O)CNC(=O)[C@H](Cc2c[nH]c3ccccc23)NC1=O [Example A52, Gly-Gly-NMePhe-Tyr-Ahp-Trp-Gly-Tyr-Asp-D-Pro] (cyclo([Ahp(2)]WGYD[dP]GG[NMeF]Y)) | 0.118 | 0.36 | 0.104 | 0.737 |
| CCCCC[C@@H]1NC(=O)[C@H](Cc2ccc(O)cc2)NC(=O)[C@H](Cc2ccccc2)N(C)C(=O)CNC(=O)[C@@H]2CCCN2C(=O)[C@H]2CCCN2C(=O)[C@H](CC(=O)O)NC(=O)[C@H](Cc2ccc(O)cc2)NC(=O)CNC(=O)[C@H](Cc2c[nH]c3ccccc23)NC1=O [Example A51, 2-((6S,9S,15S,18S,21S,24S,29aS,34aR)-15-((1H-indol-3-yl)methyl)-24-benzyl-9,21-bis(4-hydroxybenzyl)-25-methyl-5,8,11,14,17,20,23,26,29,34-decaoxo-18-pentyldotriacontahydro-1H,5H-dipyrrolo[1,2-a:1′,2′-b1][1,4,7,10,13,16,19,22,25,28]decaazacyclotriacontin-6-yl)acetic acid] (cyclo(G[NMeF]Y[Ahp(2)]WGYD[dP]P)) | 0.163 | 0.185 | 0.117 | 0.4 |
| CCCCC[C@@H]1NC(=O)[C@H](Cc2ccc(O)cc2)NC(=O)[C@H](Cc2ccccc2)N(C)C(=O)CNC(=O)CNC(=O)[C@H]2CCCN2C(=O)[C@H](CC(=O)O)NC(=O)[C@H](Cc2ccc(O)cc2)N(C)C(=O)CNC(=O)[C@H](Cc2c[nH]c3ccccc23)NC1=O [Example A50, 2-((9S,12S,15S,18S,24S,27S,32aR)-18-((1H-indol-3-yl)methyl)-9-benzyl-12,24-bis(4-hydroxybenzyl)-8,23-dimethyl-1,4,7,10,13,16,19,22,25,28-decaoxo-15-pentyldotriacontahydropyrrolo[1,2-a][1,4,7,10,13,16,19,22,25,28]decaazacyclotriacontin-27-yl)acetic acid] (cyclo([Ahp(2)]WG[NMeY]D[dP]GG[NMeF]Y)) |  | 2.8 | 0.95 | 2.4 |
| CCCOCC[C@@H]1NC(=O)[C@H](Cc2ccc(CNC(=O)COCCOCCNC(=O)CN3CCN(CC(=O)O)CCN(CC(=O)O)CC3)cc2)NC(=O)[C@H](Cc2ccccc2)N(C)C(=O)CNC(=O)CNC(=O)[C@H]2CCCN2C(=O)[C@H](CC(=O)O)NC(=O)[C@H](CCCCNC(=O)N2CCN(CC(=O)O)CC2)NC(=O)CNC(=O)[C@H](Cc2c[nH]c3ccccc23)NC1=O [Example B34, Gly-Gly-NMePhe-F(4amPEG2NHNOTA-hS(Pr)-Trp-Gly-K(COpipzaa)-Asp-D-Pro] (cyclo(D[dP]GG[NMeF][Phe(4-CH2NH2)]([AEEA-NOTA])[hSer](Propyl)WGK([CO-Piperazinyl(4-CH2COOH)]))) |  | < 0.034 | 0.007 | 0.017 |
| CCCCC[C@@H]1NC(=O)[C@H](Cc2ccc(O)cc2)NC(=O)[C@H](Cc2ccccc2)N(C)C(=O)CNC(=O)CNC(=O)[C@@]2(C)CCCN2C(=O)[C@H](CC(=O)O)NC(=O)[C@H](Cc2ccc(O)cc2)NC(=O)CNC(=O)[C@H](Cc2c[nH]c3ccccc23)NC1=O [Example A70, Gly-Gly-NMePhe-Tyr-Ahp-Trp-Gly-Tyr-Asp-D-aMeP] (cyclo([Ahp(2)]WGYD[d(αMeP)]GG[NMeF]Y)) |  | 0.104 | 0.036 | 0.116 |
